Measurements from DBAASP.
Converted amounts (≈) assume the structure as drawn. One block for each compound: values may come before it.

What was measured:
Test in all cases: ≥ marks a high value that may be exact or a test limit, other limits are often not marked, values filed in µg/mL are converted to µM
[1] = test system: Vibrio parahaemolyticus CGMCC 1.1615
[2] = test system: Micrococcus luteus CGMCC 1.0634
[3] = test system: Bacillus subtilis CGMCC 1.108
[4] = test system: Pseudomonas fluorescens CGMCC 1.0032
[5] = test system: Corynebacterium glutamicum CGMCC 1.1886
Edwardsiella tarda = test system: Edwardsiella tarda
[6] = test system: Vibrio alginolyticus CGMCC 1.1833
[7] = test system: Vibrio fluvialis CGMCC 1.1609
Aeromonas sobria = test system: Aeromonas sobria
[8] = test system: Shigella flexneri CGMCC 1.1868
Escherichia coli MC1061 = test system: Escherichia coli MC1061
[9] = test system: Staphylococcus epidermidis CGMCC 1.2429
[10] = test system: Staphylococcus aureus CGMCC 1.363
[11] = test system: Candida albicans CGMCC 2.2411
[12] = test system: Vibrio harveyi CGMCC 1.1593
[13] = test system: Micrococcus luteus CGMCC 1.634
[14] = test system: Aeromonas hydrophila CGMCC 1.0927
[15] = test system: Staphylococcus aureus NCTC 8530
[16] = test system: Staphylococcus aureus ATCC 33592
Klebsiella aerogenes = test system: Klebsiella aerogenes
Enterobacter cloacae = test system: Enterobacter cloacae
Escherichia coli ML-35p = test system: Escherichia coli ML-35p
[17] = test system: Pseudomonas aeruginosa PAO1
Staphylococcus aureus = test system: Staphylococcus aureus
[18] = test system: Pseudomonas aeruginosa ATCC 27853
[19] = test system: Escherichia coli ATCC 25922
Escherichia coli = test system: Escherichia coli
Pseudomonas aeruginosa = test system: Pseudomonas aeruginosa
[20] = test system: Staphylococcus aureus ATCC 25923
[21] = test system: Escherichia coli CCARM 1238
[22] = test system: Salmonella typhimurium KCTC 1926
[23] = test system: Staphylococcus aureus CCARM 3108
[24] = test system: Pseudomonas aeruginosa CCARM 2002
[25] = test system: Staphylococcus aureus KCTC 1621
[26] = test system: Pseudomonas aeruginosa KCTC 1637
[27] = test system: Staphylococcus aureus CCARM 3126
[28] = test system: Staphylococcus aureus CCARM 3089
[29] = test system: Staphylococcus epidermidis KCTC 1917
[30] = test system: Pseudomonas aeruginosa CCARM 2095
[31] = test system: Escherichia coli CCARM 1229
[32] = test system: Acinetobacter baumannii CCARM 12035
[33] = test system: Salmonella typhimurium CCARM 8007
[34] = test system: Escherichia coli KCTC 1682
[35] = test system: Acinetobacter baumannii KCTC 2508
[36] = test system: Bacillus subtilis KCTC 3028
[37] = test system: Salmonella typhimurium CCARM 8003
[38] = test system: Acinetobacter baumannii CCARM 12036
[39] = test system: Candida albicans CPCC 400416
[40] = test system: Staphylococcus aureus CPCC 100520
[41] = test system: Escherichia coli CPCC 100521

MIC [2]: ≥ 48 µM
MIC [3]: ≥ 48 µM
MIC [4]: 8.49 µM (≈ 9.46 µg/mL)
MIC [5]: 17 µM (≈ 18.9 µg/mL)
MIC (Edwardsiella tarda): ≥ 48 µM
MIC [6]: ≥ 48 µM
MIC [7]: ≥ 48 µM
MIC (Aeromonas sobria): ≥ 48 µM
MIC [8]: ≥ 48 µM
MIC (Escherichia coli MC1061): ≥ 48 µM
MIC [9]: ≥ 48 µM
MIC [10]: 17 µM (≈ 18.9 µg/mL)
MIC [11]: ≥ 48 µM
MIC [12]: ≥ 48 µM
MIC [13]: 8.49 µM (≈ 9.46 µg/mL)
MIC [14]: ≥ 48 µM
Compound: CC[C@H](C)[C@H](NC(=O)[C@H](CCCN=C(N)N)NC(=O)CNC(=O)[C@@H](N)C(C)C)C(=O)N[C@@H](Cc1cnc[nH]1)C(=O)N[C@@H](CCCN=C(N)N)C(=O)N[C@@H](Cc1cnc[nH]1)C(=O)N[C@@H](CC(C)C)C(=O)N[C@@H](CCCCN)C(=O)O [VGRIHRHLK]
MIC [1]: ≥ 48 µM

MIC [15]: 3 µM (≈ 4.54 µg/mL)
MIC [16]: 3 µM (≈ 4.54 µg/mL)
Compound: CC[C@H](C)[C@H](NC(=O)[C@H](CCCCN)NC(=O)[C@H](CCCN=C(N)N)NC(=O)[C@@H](N)CCCCN)C(=O)N[C@@H](Cc1ccccc1)C(=O)N[C@@H](CC(C)C)C(=O)N[C@@H](CCCN=C(N)N)C(=O)N[C@H](C(=O)N[C@@H](CCCCN)C(=O)N[C@H](C(=O)N[C@@H](CC(C)C)C(=O)N[C@H](C(=O)O)C(C)C)[C@@H](C)CC)[C@@H](C)O [KRKIFLRTKILV]

MIC (Klebsiella aerogenes): 13.8 µM (≈ 27 µg/mL)
MIC (Enterobacter cloacae): 10.7 µM (≈ 21 µg/mL)
MIC (Escherichia coli ML-35p): 2.55 µM (≈ 5 µg/mL)
MIC [17]: 6.62 µM (≈ 13 µg/mL)
MIC (Staphylococcus aureus): 5.1 µM (≈ 10 µg/mL)
MIC [18]: 3.57 µM (≈ 7 µg/mL)
MIC [19]: 1.53 µM (≈ 3 µg/mL)
MIC (Escherichia coli): 2.04 µM (≈ 4 µg/mL)
MIC (Pseudomonas aeruginosa): 6.62 µM (≈ 13 µg/mL)
MIC [20]: 21.4 µM (≈ 42 µg/mL)
Compound: CC[C@H](C)[C@H](NC(=O)[C@@H](NC(=O)[C@H](CCCN=C(N)N)NC(=O)[C@@H]1CCCN1C(=O)[C@H](CCCCN)NC(=O)[C@H](CCCCN)NC(=O)[C@H](Cc1ccccc1)NC(=O)[C@H](Cc1ccccc1)NC(=O)[C@H](CCCCN)NC(=O)[C@H](CCCCN)NC(=O)[C@H](C)N)C(C)C)C(=O)NCC(=O)N[C@H](C(=O)N[C@@H](CO)C(=O)N[C@H](C(=O)N1CCC[C@H]1C(=O)N[C@@H](Cc1ccccc1)C(=O)O)[C@@H](C)CC)C(C)C [AKKFFKKPRVIGVSIPF]

MIC [21]: 8 µM (≈ 21.9 µg/mL)
MIC [22]: 8 µM (≈ 21.9 µg/mL)
MIC [23]: ≥ 32 µM
MIC [24]: 16 µM (≈ 43.8 µg/mL)
MIC [25]: ≥ 32 µM
MIC [26]: 8 µM (≈ 21.9 µg/mL)
MIC [27]: ≥ 64 µM
MIC [28]: ≥ 32 µM
MIC [29]: ≥ 64 µM
MIC [30]: 16 µM (≈ 43.8 µg/mL)
MIC [31]: 8 µM (≈ 21.9 µg/mL)
MIC [32]: 16 µM (≈ 43.8 µg/mL)
MIC [33]: 16 µM (≈ 43.8 µg/mL)
MIC [34]: 4 µM (≈ 11 µg/mL)
MIC [35]: 8 µM (≈ 21.9 µg/mL)
MIC [36]: ≥ 32 µM
MIC [37]: 16 µM (≈ 43.8 µg/mL)
MIC [38]: 8 µM (≈ 21.9 µg/mL)
Compound: CC[C@H](C)[C@H](NC(=O)[C@H](C)NC(=O)[C@H](CCCCN)NC(=O)[C@H](Cc1cnc[nH]1)NC(=O)[C@@H](NC(=O)[C@@H]1CCCN1C(=O)[C@H](CCC(N)=O)NC(=O)[C@H](Cc1ccccc1)NC(=O)[C@@H](NC(=O)[C@H](CCCCN)NC(=O)[C@H](CCCCN)NC(=O)[C@H](CC(C)C)NC(=O)[C@H](C)NC(=O)[C@H](CC(N)=O)NC(=O)[C@H](CC(C)C)NC(=O)CN)C(C)C)[C@@H](C)CC)C(=O)N[C@@H](CCCCN)C(=O)N[C@@H](CCCCN)C(=O)N[C@H](C(=O)N[C@@H](CC(N)=O)C(=O)N[C@@H](CC(N)=O)C(=O)N[C@@H](Cc1cnc[nH]1)C(=O)N[C@H](C(=O)N[C@@H](CCC(N)=O)C(=O)O)C(C)C)[C@@H](C)CC [GLNALKKVFQPIHKAIKKINNHVQ]

MIC [39]: 12.5 µM (≈ 31.9 µg/mL)
MIC [40]: 6.3 µM (≈ 16.1 µg/mL)
MIC [41]: 6.3 µM (≈ 16.1 µg/mL)
Compound: CC[C@H](C)[C@H](NC(=O)CN)C(=O)NCC(=O)NCC(=O)N[C@@H](C)C(=O)N[C@@H](CC(C)C)C(=O)N[C@@H](CC(C)C)C(=O)N[C@@H](CO)C(=O)N[C@@H](C)C(=O)NCC(=O)N[C@@H](CCCCN)C(=O)N[C@@H](CO)C(=O)N[C@@H](C)C(=O)N[C@@H](CC(C)C)C(=O)N[C@@H](CCCCN)C(=O)NCC(=O)N[C@@H](CC(C)C)C(=O)N[C@@H](C)C(=O)N[C@@H](CCCCN)C(=O)NCC(=O)N[C@@H](CC(C)C)C(=O)N[C@@H](C)C(=O)N[C@@H](CCC(=O)O)C(=O)N[C@@H](Cc1cnc[nH]1)C(=O)N[C@@H](Cc1ccccc1)C(=O)N[C@@H](C)C(=O)N[C@@H](CC(N)=O)C(N)=O [GIGGALLSAGKSALKGLAKGLAEHFAN]
